Laboratory results published in patent US4504655A, “Substances potentiating the activity of antibiotics and their production” (Takeda Chemical Industries, Ltd., priority 1981, dated 1985).
“And” between values parts separate entries of the source, which are not always exact repeats. Identical values can stand only once. “Also recorded” adds a separate entry of the source. Counter-ions that a name gives are not always drawn. Blank lines part the entries; values can stand above or below the molecule they belong to.

Experiments:
[1] = Stability in aqueous solution; assay type: physicochemical; conditions: pH 3-9, heating at 60° C. for 10 minutes
Solubility = assay type: physicochemical
[2] = system: Escherichia coli IFO 12734; test: Antibiotic-potentiating activity, paper disc growth inhibition zone, Escherichia coli IFO 12734; assay type: cell-based
Description: The potency of the compound of the formula (II) can be determined, for instance, by the cup method or paper disc method using bouillon agar containing 0.05 μg/ml of cefmenoxime with Escherichia coli IFO 12734 as the test organism. […]
(§1) *The test was performed using a bouillon agar medium containing the
antibiotic as specified and a paper disc, 8 mm in diameter.
**A paper disc, 8 mm in diameter, was impregnated with 25 μl of the […]

[3] = system: Proteus mirabilis ATCC 21100; test: Antibiotic-potentiating activity, paper disc growth inhibition zone, Proteus mirabilis ATCC 21100; assay type: cell-based
Description: as §1
antibiotic as specified and a paper disc, 8 mm in diameter. […]
*The test was performed under the same conditions as noted for Table 1
except for the test organism and the concentration of each coexisting

Escherichia coli = test: Observation of the culture broths under a phase contrast microscope; assay type: cell-based; conditions: for Form of cells under phase contrast microscope: antibiotic alone, F2 or F3 not added
Description: (§2) To 8 ml of YAB medium (1.75% Difco antibiotic medium No. 3, 0.5% Difco yeast extract) containing 12% (w/v) of sucrose, there were added 1 ml of water, 50 μg/ml cephalexin solution or 10 μg/ml cefmenoxime solution, and the medium was inoculated with 1 ml of a preculture in YAB medium at an early logarithmic growth phase and incubated with shaking at 37° C. for 2 hours. Thereafter, the absorbance of the culture broth was measured at 600 nm using a Shimadzu-Bausch & Lomb Spectronic 20 colorimeter.

[4] = system: Escherichia coli IFO 12734; test: Inhibition of growth of Escherichia coli in liquid culture (absorbance at 600 nm); assay type: cell-based
[5] = system: Escherichia coli IFO 12734; test: as above; assay type: cell-based; remark: listed apart in the source
Description: Table 5: Inhibition of growth of Escherichia coli IFO 12734 in the copresence of F2 (obtained in Example 1) and cephalexin or cefmenoxime.
as §2

β-lactamases = conditions: D. A. Leigh et al., 1981; cited from earlier work
[6] = system: β-lactamase producing bacteria; conditions: D. A. Leigh et al., 1981; cited from earlier work
[7] = petroleum ether, hexane, diethyl ether, benzene, ethyl acetate and chloroform
[8] = F3 of Example 5, 1 μg/ml in test solution, no addition
[9] = F3 of Example 5, 5 μg/ml in test solution, no addition
[10] = F3 of Example 5, 25 μg/ml in test solution, no addition
[11] = F3 of Example 5, 125 μg/ml in test solution, no addition
[12] = F3 of Example 5, 1000 μg/ml in test solution, no addition

Stability [1]: Stable | Solubility (Solubility; acetone): only sparingly soluble | Solubility (Solubility; dimethyl sulfoxide): soluble | Solubility (Solubility; ethanol and pyridine): only sparingly soluble | Solubility (Solubility; methanol): soluble | Solubility (Solubility; [7]): Insoluble | Solubility (Solubility; water): readily soluble
SMILES: CC(=O)NC1C(OC2CC(C(=O)O)NC2CO)OC(CO)C(OS(=O)(=O)O)C1O (stereo not shown) [F3 monosodium salt]

SMILES: CC(=O)NC1C(OC2CC(C(=O)O)NC2CO)OC(CO)C(OS(=O)(=O)O)C1O (stereo not shown) [F3]
Diameter of growth inhibition zone ([2]; F3 of Example 5, 1 μg/ml in test solution, 0.03 μg/ml of mecillinam): < 8 mm | Diameter of growth inhibition zone ([2]; F3 of Example 5, 1 μg/ml in test solution, 0.05 μg/ml of cefmenoxime): 10 mm | Diameter of growth inhibition zone [2, 8]: < 8 mm | Diameter of growth inhibition zone ([2]; F3 of Example 5, 5 μg/ml in test solution, 0.03 μg/ml of mecillinam): < 8 mm | Diameter of growth inhibition zone ([2]; F3 of Example 5, 5 μg/ml in test solution, 0.05 μg/ml of cefmenoxime): 12.5 mm | Diameter of growth inhibition zone [2, 9]: < 8 mm | Diameter of growth inhibition zone ([2]; F3 of Example 5, 25 μg/ml in test solution, 0.03 μg/ml of mecillinam): 9 mm | Diameter of growth inhibition zone ([2]; F3 of Example 5, 25 μg/ml in test solution, 0.05 μg/ml of cefmenoxime): 15 mm | Diameter of growth inhibition zone [2, 10]: < 8 mm | Diameter of growth inhibition zone ([2]; F3 of Example 5, 125 μg/ml in test solution, 0.03 μg/ml of mecillinam): 17.5 mm | Diameter of growth inhibition zone ([2]; F3 of Example 5, 125 μg/ml in test solution, 0.05 μg/ml of cefmenoxime): 26 mm | Diameter of growth inhibition zone [2, 11]: < 8 mm | Diameter of growth inhibition zone ([2]; F3 of Example 5, 1000 μg/ml in test solution, 0.03 μg/ml of mecillinam): 28.5 mm | Diameter of growth inhibition zone ([2]; F3 of Example 5, 1000 μg/ml in test solution, 0.05 μg/ml of cefmenoxime): 38 mm | Diameter of growth inhibition zone [2, 12]: < 8 mm | Diameter of growth inhibition zone ([3]; F3 of Example 5, 1 μg/ml in test solution, 0.01 μg/ml of cefmenoxime): 9 mm | Diameter of growth inhibition zone ([3]; F3 of Example 5, 1 μg/ml in test solution, 0.05 μg/ml of mecillinam): < 8 mm | Diameter of growth inhibition zone [3, 8]: < 8 mm | Diameter of growth inhibition zone ([3]; F3 of Example 5, 5 μg/ml in test solution, 0.01 μg/ml of cefmenoxime): 12 mm | Diameter of growth inhibition zone ([3]; F3 of Example 5, 5 μg/ml in test solution, 0.05 μg/ml of mecillinam): 9 mm | Diameter of growth inhibition zone [3, 9]: < 8 mm | Diameter of growth inhibition zone ([3]; F3 of Example 5, 25 μg/ml in test solution, 0.01 μg/ml of cefmenoxime): 21 mm | Diameter of growth inhibition zone ([3]; F3 of Example 5, 25 μg/ml in test solution, 0.05 μg/ml of mecillinam): 13.5 mm | Diameter of growth inhibition zone [3, 10]: < 8 mm | Diameter of growth inhibition zone ([3]; F3 of Example 5, 125 μg/ml in test solution, 0.01 μg/ml of cefmenoxime): 28.5 mm | Diameter of growth inhibition zone ([3]; F3 of Example 5, 125 μg/ml in test solution, 0.05 μg/ml of mecillinam): 19 mm | Diameter of growth inhibition zone [3, 11]: < 8 mm | Diameter of growth inhibition zone ([3]; F3 of Example 5, 1000 μg/ml in test solution, 0.01 μg/ml of cefmenoxime): 32.5 mm | Diameter of growth inhibition zone ([3]; F3 of Example 5, 1000 μg/ml in test solution, 0.05 μg/ml of mecillinam): 30 mm | Diameter of growth inhibition zone [3, 12]: < 8 mm | Swelling and bacteriolysis under phase contrast microscope (Escherichia coli; in the presence of cephalexin or cefmenoxime): partial swelling occurred and bacteriolysis proceeded | Elongation of cells under phase contrast microscope (Escherichia coli; in the presence of cephalexin or cefmenoxime, in dependence on the addition level): elongation was inhibited | Absorbance at 600 nm ([4]; final F3 (Example 5) 1 μg/ml, 1 μg/ml of cefmenoxime): 2.2 | Absorbance at 600 nm ([4]; final F3 (Example 5) 1 μg/ml, no addition): 3.7 | Absorbance at 600 nm ([4]; final F3 (Example 5) 10 μg/ml, 1 μg/ml of cefmenoxime): 0.6 | Absorbance at 600 nm ([4]; final F3 (Example 5) 10 μg/ml, no addition): 3.7 | Absorbance at 600 nm ([4]; final F3 (Example 5) 100 μg/ml, 1 μg/ml of cefmenoxime): 0.6 | Absorbance at 600 nm ([4]; final F3 (Example 5) 100 μg/ml, no addition): 3.7 | Inhibition of growth of Escherichia coli ([5]; in the presence of cephalexin or cefmenoxime, decrease in absorbance): inhibits the growth of Escherichia coli

SMILES: CC(=O)NC1C(OC2CC(C(=O)NCCS(=O)(=O)O)NC2CO)OC(CO)C(O)C1O (stereo not shown) [F4]
Diameter of growth inhibition zone ([2]; F4 of Example 7, 10 μg/ml in test solution, 0.03 μg/ml mecillinam): < 8 mm | Diameter of growth inhibition zone ([2]; F4 of Example 7, 10 μg/ml in test solution, 0.05 μg/ml cefmenoxime): < 8 mm | Diameter of growth inhibition zone ([2]; F4 of Example 7, 10 μg/ml in test solution, no addition): < 8 mm | Diameter of growth inhibition zone ([2]; F4 of Example 7, 100 μg/ml in test solution, 0.03 μg/ml mecillinam): 13 mm | Diameter of growth inhibition zone ([2]; F4 of Example 7, 100 μg/ml in test solution, 0.05 μg/ml cefmenoxime): 15 mm | Diameter of growth inhibition zone ([2]; F4 of Example 7, 100 μg/ml in test solution, no addition): < 8 mm | Diameter of growth inhibition zone ([2]; F4 of Example 7, 1000 μg/ml in test solution, 0.03 μg/ml mecillinam): 23 mm | Diameter of growth inhibition zone ([2]; F4 of Example 7, 1000 μg/ml in test solution, 0.05 μg/ml cefmenoxime): 26 mm | Diameter of growth inhibition zone ([2]; F4 of Example 7, 1000 μg/ml in test solution, no addition): < 8 mm

SMILES: CO/N=C(\C(=O)N[C@@H]1C(=O)N2C(C(=O)O)=C(CSc3nnnn3C)CS[C@H]12)c1csc(N)n1 [cefmenoxime, reference compound]
Diameter of growth inhibition zone ([2]; 0.05 μg/ml cefmenoxime alone (F2, F3 or F4 0 μg/ml)): < 8 mm | Diameter of growth inhibition zone ([3]; 0.01 μg/ml cefmenoxime alone (F2 or F3 0 μg/ml)): < 8 mm | Form of cells under phase contrast microscope (Escherichia coli): much elongated form | Absorbance at 600 nm ([5]; 1 μg/ml cefmenoxime alone (F2 or F3 0 μg/ml)): 1.95 and 1.90 and 2.9

SMILES: CC1=C(C(=O)O)N2C(=O)[C@@H](NC(=O)[C@H](N)c3ccccc3)[C@H]2SC1 [cephalexin, reference compound]
Form of cells under phase contrast microscope (Escherichia coli): much elongated form | Absorbance at 600 nm ([5]; 5 μg/ml cephalexin alone (F2 0 μg/ml)): 2.35 and 2.15

SMILES: O=C(O)[C@H]1/C(=C/CO)O[C@@H]2CC(=O)N21 [clavulanic acid]
Inactivation of β-lactam antibiotics by β-lactamases (β-lactamases): prevents inactivation | Potentiation of activity of β-lactam antibiotics against β-lactamase producing bacteria [6]: synergistically potentiates their activity

Stability [1]: Stable | Solubility (Solubility; acetone): Insoluble | Solubility (Solubility; dimethyl sulfoxide): soluble | Solubility (Solubility; [7]): Insoluble | Solubility (Solubility; water): readily soluble
SMILES: CC(=O)NC1C(OC2CC(C(=O)NCCS(=O)(=O)O)NC2CO)OC(CO)C(OS(=O)(=O)O)C1O (stereo not shown) [disodium salt of F2]
Solubility (Solubility; ethanol and pyridine): spargingly soluble; also recorded: sparingly soluble | Solubility (Solubility; methanol): spargingly soluble; also recorded: sparingly soluble

SMILES: CC1(C)S[C@@H]2[C@H](/N=C/N3CCCCCC3)C(=O)N2[C@H]1C(=O)O [mecillinam, reference compound]
Diameter of growth inhibition zone ([2]; 0.03 μg/ml mecillinam alone (F2, F3 or F4 0 μg/ml)): < 8 mm | Diameter of growth inhibition zone ([3]; 0.05 μg/ml mecillinam alone (F2 or F3 0 μg/ml)): < 8 mm

Stability [1]: Stable | Solubility (Solubility; acetone): sparingly soluble | Solubility (Solubility; dimethyl sulfoxide): soluble | Solubility (Solubility; ethanol and pyridine): sparingly soluble | Solubility (Solubility; methanol): soluble | Solubility (Solubility; [7]): Insoluble | Solubility (Solubility; water): readily soluble
SMILES: CC(=O)NC1C(OC2CC(C(=O)NCCS(=O)(=O)O)NC2CO)OC(CO)C(OS(=O)(=O)O)C1O (stereo not shown) [monosodium salt of F2]
